The subject of one data set is ROCK1. The data set can be described thus: qRT-PCR analysis monitoring ROCK1 expression (shRNA knockdown) in FRDA (GM23404) iPSCs. The class given is cell-based, human. The following applies: FRDA (GM23404) iPSCs expressing the shRNA. An excerpt:
(§1) FIGS. 4A-E. Identification of ROCK2 as a protein kinase that mediates repression of the mutant FXN gene. (A) qRT-PCR analysis monitoring ROCK1 and ROCK2 expression in FRDA (GM23404) iPSCs expressing the two ROCK1 shRNAs used in the experiments shown in FIGS. 1-3 (hereafter called ROCK1-1 and ROCK1-2). […] (B) qRT-PCR analysis monitoring knockdown efficiencies of selective ROCK1 (ROCK1-3) and ROCK2 shRNAs.
(§2) Of the 8 new FXN-RFs that we identified, we are particularly enthusiastic about ROCK1, a serine-threonine kinase and major effector of the small GTPase RhoA (Schofield and Bernard, Crit Rev Biochem Mol Biol, 2013, 48 (4): 301-316. ROCK1 phosphory lates a variety of substrates, some of which can affect cell signaling pathways, such as PI3K/AKT (Ruth et al., J Invest Dermatol, 2006, 126 (4): 862-868), and transcription factors, such as NF-kB (Shimizu et al., Mol Hum Reprod, 2007, 13 (3): 181-187) and Runx2 (Huang et al., Exp Ther Med, 2018, 15 (5): 4457-4464). In addition to ROCK1, mammalian cells express another ROCK isoform encoded by a distinct gene, ROCK2. […] ROCK1 and ROCK2 share ˜65% overall amino acid identity and 92% identity in their kinase domains, with 100% identity within their ATP-binding pockets (Nakagawa et al., FEBS Lett, 1996, 392 (2): 189-193; Takahashi et al., Genomics, 1999, 55 (2): 235-237). […] Thus, both ROCK1 and ROCK2 are protein kinase FXN-RFs.
A general note: In qPCR the cycle at which signal appears reflects the starting amount.

Another data set concerns ROCK2. The data set can be described thus: qRT-PCR analysis monitoring ROCK2 expression (shRNA knockdown) in FRDA (GM23404) iPSCs. The settings on record: FRDA (GM23404) iPSCs expressing the shRNA. The class given is cell-based, human.
From the text: as §1, §2

In the next data set the test system is mutant FXN gene. The data set is described as follows: Massively parallel short-read sequencing (RNA-seq) of FXN transcript levels in FRDA neurons. It counts as cell-based, human. The following applies: vs DMSO, Illumina platform.
The next data set concerns FRDA neurons. The data set is described as follows: Mitochondrial oxygen consumption rate (Agilent Seahorse XF Analyzer) in FRDA neurons. It counts as cell-based, human. The settings on record: small molecule ROCK1/2 inhibitor. An excerpt: (§3) FIGS. 3A-D. Inhibition of protein kinase FXN-RFs can ameliorate characteristic mitochondrial defects of FRDA post-mitotic neurons and cardiomyocytes. (A, B) Quantification of flow cytometry analysis of normal and FRDA neurons (A) or normal and FRDA CMCs (B) expressing an FXN-RF shRNA and stained with MitoSOX. (C, D) Analysis of the mitochondrial oxygen consumption rate in normal and FRDA neurons (C) or normal and FRDA CMCs (D) expressing an FXN-RF shRNA. […] (C, D) Analysis of the mitochondrial oxygen consumption rate in FRDA neurons (C) or FRDA CMCs (D) treated with a small molecule ROCK1/2 inhibitor. (E, F) Immunoblot analysis showing levels of mitochondrial proteins ACO and ISCU in FRDA neurons (E) or FRDA CMCs (F) treated with fasudil (1 μM), KD025 (1 μM), or ripasudil (0.5 μM). […] We next asked whether FXN-RF inhibition could ameliorate two characteristic mitochondrial defects of FRDA neurons and cardiomyocytes: increased levels of reactive oxygen species (ROS) and decreased oxygen consumption. In the first set of experiments, FRDA neurons and cardiomyocytes expressing a protein kinase FXN-RF shRNA were stained with MitoSOX (an indicator of mitochondrial superoxide levels and mitochondrial ROS production) followed by flow cytometry analysis. As expected. FRDA neurons and cardiomyocytes had increased levels of mitochondrial ROS production compared to normal neurons and cardiomyocytes (FIGS. 3A, B). […] In the second set of experiments, we measured mitochondrial oxygen consumption rate, which is related to ATP production, using an Agilent Seahorse XF Analyzer. As expected, mitochondrial oxygen consumption rate in FRDA neurons and cardiomyocytes was ˜60% of the level observed in normal neurons and cardiomyocytes (FIGS. 3C, D).

The next data set deals with FRDA cardiomyocytes. The data set can be described thus: Mitochondrial oxygen consumption rate (Agilent Seahorse XF Analyzer) in FRDA cardiomyocytes. It counts as cell-based, human. The following applies: small molecule ROCK1/2 inhibitor.
From the text: as §3

Data set [1] relates to ACO2 and ISCU. The data set is described as follows: Immunoblot analysis of mitochondrial Fe-S proteins in FRDA neurons. The class given is cell-based, human. The following applies: fasudil 1 μM, KD025 1 μM, ripasudil 0.5 μM. Background: In western blotting, separated proteins are transferred to a membrane and probed.
Data set [2] has as its system ACO2 and ISCU. The data set is described as follows: Immunoblot analysis of mitochondrial Fe-S proteins in FRDA cardiomyocytes. The class given is cell-based, human. The following applies: fasudil 1 μM, KD025 1 μM, ripasudil 0.5 μM.
The subject of the next data set is ROCK1/2. The following applies: literature; cited from earlier work.

Take “ROCK1-3: selective ROCK1 shRNA (3), SEQ ID NO: 13 (CCGGGCACCAGTTGTACCCGATTTACTCGAGTAAATCGGGTACAACTGGTGCTTTTTG)”: the “ROCK1 expression (knockdown)” value in the data set on ROCK1 is recorded as “knocked down ROCK1”. Moreover, the “ROCK2 expression (knockdown)” value with ROCK2 is “knocked down ROCK1 but not ROCK2”.
As for `O=S(=O)(c1cccc2cnccc12)N1CCCNCC1` [fasudil, 1-(5-isoquinolinesulfonyl)-homopiperazine], the “FXN transcript levels (RNA-seq)” value in the data set on mutant FXN gene was “Upregulation of the mutant FXN gene”. Also, in the data set with FRDA neurons, the “mitochondrial oxygen consumption rate” value is on record as “increased mitochondrial oxygen consumption rate”. Besides, the “mitochondrial oxygen consumption rate” value in the data set with FRDA cardiomyocytes is “increased mitochondrial oxygen consumption rate”. In addition, in the data set on ACO2 and ISCU [1], the “levels of ACO2” value is “increased levels of ACO2 and ISCU comparable to that observed in normal neurons and cardiomyocytes”; the “levels of ISCU” value is “increased levels of ACO2 and ISCU comparable to that observed in normal neurons and cardiomyocytes”. Moreover, in the data set on ACO2 and ISCU [2], the “levels of ACO2” value was “increased levels of ACO2 and ISCU comparable to that observed in normal neurons and cardiomyocytes”; the “levels of ISCU” value is “increased levels of ACO2 and ISCU comparable to that observed in normal neurons and cardiomyocytes”. Moreover, in the data set on ROCK1/2, the oral activity result is “orally active” and the “tolerability / adverse effects” value is given as “well tolerated without adverse effects”.
Take “ROCK1-2: ROCK1 shRNA (2), SEQ ID NO: 12; knocks down both ROCK1 and ROCK2 (CCGGGCATTCCAAGATGATCGTTATCTCGAGATAACGATCATCTTGGAATGCTTTTTG)”: the “ROCK1 expression (knockdown)” value in the data set on ROCK1 is “knocked down both ROCK1 and ROCK2”. The “ROCK2 expression (knockdown)” value in the data set with ROCK2 was “knocked down both ROCK1 and ROCK2”.
Take `C[C@@H](N)[C@H]1CC[C@H](C(=O)Nc2ccncc2)CC1.Cl.Cl` [Y27632, (+)-(R)-trans-4-(1-aminoethyl)-N-(4-pyridyl)cyclohexanecarboxamide dihydrochloride]: the “mitochondrial oxygen consumption rate” value with FRDA neurons and in the data set with FRDA cardiomyocytes was “increased mitochondrial oxygen consumption rate” each time.
As for `CC(C)NC(=O)COc1cccc(-c2nc(Nc3ccc4[nH]ncc4c3)c3ccccc3n2)c1` [KD025], in the data set with mutant FXN gene, the “FXN transcript levels (RNA-seq)” value is “Upregulation of the mutant FXN gene”. In the data set with ACO2 and ISCU [1], the “levels of ACO2” value is “increased levels of ACO2 and ISCU comparable to that observed in normal neurons and cardiomyocytes”; the “levels of ISCU” value was “increased levels of ACO2 and ISCU comparable to that observed in normal neurons and cardiomyocytes”. In the data set with ACO2 and ISCU [2], the “levels of ACO2” value is “increased levels of ACO2 and ISCU comparable to that observed in normal neurons and cardiomyocytes”; the “levels of ISCU” value is “increased levels of ACO2 and ISCU comparable to that observed in normal neurons and cardiomyocytes”.
Consider “ROCK1-1: ROCK1 shRNA (1), SEQ ID NO: 11; knocks down both ROCK1 and ROCK2 (CCGGCGGGTTGTTCAGATTGAGAAACTCGAGTTTCTCAATCTGAACAACCCGTTTTTG)”, for which the “ROCK1 expression (knockdown)” value in the data set with ROCK1 is “knocked down both ROCK1 and ROCK2”. The “ROCK2 expression (knockdown)” value in the data set with ROCK2 was “knocked down both ROCK1 and ROCK2”.
For the molecule “ROCK2 shRNA: selective ROCK2 shRNA, SEQ ID NO: 14 (CCGGGCACCAGTTGTACCCGATTTACTCGAGTAAATCGGGTACAACTGGTGCTTTTTG)”, the “ROCK1 expression (knockdown)” value with ROCK1 is “knocked down ROCK2 but not ROCK1”. Moreover, the “ROCK2 expression (knockdown)” value in the data set with ROCK2 is “knocked down ROCK2”.
For the molecule `C[C@H]1CNCCCN1S(=O)(=O)c1cccc2cncc(F)c12` [ripasudil, 4-fluoro-5-[[(2S)-2-methyl-1,4-diazepan-1-yl]sulfonyl]isoquinoline], the “mitochondrial oxygen consumption rate” value with FRDA neurons is recorded as “increased mitochondrial oxygen consumption rate”. The “mitochondrial oxygen consumption rate” value in the data set on FRDA cardiomyocytes is given as “increased mitochondrial oxygen consumption rate”. Further, in the data set on ACO2 and ISCU [1], the “levels of ACO2” value was “increased levels of ACO2 and ISCU comparable to that observed in normal neurons and cardiomyocytes”; the “levels of ISCU” value was “increased levels of ACO2 and ISCU comparable to that observed in normal neurons and cardiomyocytes”. Further, in the data set on ACO2 and ISCU [2], the “levels of ACO2” value was “increased levels of ACO2 and ISCU comparable to that observed in normal neurons and cardiomyocytes”; the “levels of ISCU” value was “increased levels of ACO2 and ISCU comparable to that observed in normal neurons and cardiomyocytes”. Moreover, in the data set on ROCK1/2, the oral activity entry is given as “orally active” and the “tolerability / adverse effects” value was “well tolerated without adverse effects”.

These data come from patent publication US12281308B2, “Inhibition of protein kinases to treat Friedreich ataxia” (University of Massachusetts, priority 2018, dated 2025).
